Measured values published in a melting point compilation (Tetko et al.; mined from patent text by program, amines drawn as free bases though some values may be those of a salt).

Structure (SMILES) | melting point [°C]
CCc1nc(CC)c(CO)c(-c2ccccc2)c1CC | 100
CN(C(=O)Nc1ccc(Cl)c(Cl)c1)S(=O)(=O)CCl | 119
CC1=NN(c2ccccc2O)C(=O)C1 | 212 to 214
NC(CO)(CO)CCc1ccc(C(=O)CCCCCCc2ccccc2)cc1 | 121 to 122
O=c1oc2ccccc2c(O)c1[C@@H]1C[C@@H](c2ccc(OCc3ccc(C(F)(F)F)cc3)cc2)Cc2ccccc21 (relative stereo) | 153 to 155
CS(=O)c1cc(=O)c2occc2s1 (stereo not given) | 230 to 232
O=C(O)Cc1cccc(OCc2ccc3oc([N+](=O)[O-])c(-c4ccccc4)c3c2)c1 | 144 to 145
CC(C)(C)OC(=O)c1ccc(C(=O)N[C@H]2CN3C(=O)N(c4cc(Cl)cc(Cl)c4)C(=O)[C@@]3(Cc3ccc(Br)cc3)C2)cc1 | 112
Cc1cnc2nc(NS(=O)(=O)c3ccccc3Cl)nn2c1 | 236 to 239
CCCCC(Cn1cncn1)(C(N)=O)c1ccc(Cl)cc1Cl (stereo not given) | 170 to 172
CCOC(=O)Oc1cc(C(C)(C)C)oc(=O)c1-c1c(C)cc(C)cc1C | 92 to 94
Fc1ccc(-c2cc(N3CCN(c4ccc(F)cc4)CC3)nc3c2CCCCCC3)cc1 | 130 to 131
CC1(C)CNc2nc(-c3ccncc3)c(F)c(=O)n2C1 | 190 to 192
C=CCN1C2CCC1C1CCC2N1C(c1ccc(C(=O)NC2CCCCC2)cc1)c1cccc(OC)c1 (stereo not given) | 58 to 60
CCCCN(CCCC)c1ccc(N=O)cc1 | 122 to 124
CC(C)n1cc(-c2nc(C#N)c(N)nc2-c2cccc(F)c2)ccc1=O | 211
CC(C)C[C@H](NC(=O)COc1ccc(Cl)cc1)C(=O)N[C@@H](C(C)C)[C@@H](O)c1c(-c2ccccc2)c1=O | 88 to 90
CC(=O)Nc1cccc(-c2cccnc2)c1 | 72 to 74
CCOC(=O)Cc1ccc(NC(=O)C(COc2ccccc2)NS(=O)(=O)c2ccc(F)cc2)cc1 (racemic) | 122 to 124
O=C(O)C1Cc2cc3c(-c4ccccc4Cl)noc3c(Cl)c2O1 (stereo not given) | 224 to 225
Cc1ccnc2c1nc(COc1ccc(CC3SC(=O)NC3=O)cc1)n2C (stereo not given) | 205 to 207
O=C(C=Cc1cccc(Br)c1)Nc1ccc(CN2CCCCC2)cc1 | 144 to 145

Structure (SMILES) | melting point [°C]
N#Cc1cnn2c(C(F)(F)F)cc(-c3cccnc3)nc12 | 193
Nc1nc(SCCC(=O)c2ccccc2)c2[nH]cnc2n1 | 204 to 205
COC(=O)CCC(=O)Nc1ccc2c(=O)n3c(nc2c1)C(=Cc1ccccc1)CC3 | 288 to 291
C=CCON=C(CC)C1=C(OCc2ccccc2)CC(C)(C)CC1=O | 60.5 to 61.5
O=C(CC(=O)c1ccccc1)Nc1ccccc1NC(=O)CC(=O)c1ccccc1 | 202 to 204
Nc1cc(-n2cncn2)ccc1[N+](=O)[O-] | 259 to 261
C=C(C1=C(CCC(=O)OC)C(=O)CC1OC(C)=O)c1ccccc1 (stereo not given) | 78 to 79
CC(C)C[C@H](OC(=O)NC1CCCCC1)C(=O)OCc1ccccc1 | 89 to 90
Nc1ccc(O)c2c1C(=O)c1c(N)ccc(O)c1C2=O | 290
CC(C)c1cc(C(=O)Nc2ccc(C(=O)O)cn2)oc1C(C)C | 278 to 279
O=C(OCCn1ccnc1)c1ccccc1O | 74 to 75
CC(C(=O)O)n1cc(-c2ccccc2)c(=O)c(-c2cccc(C(F)(F)F)c2)c1 (stereo not given) | 236 to 237
CN(C)C(=O)c1cc(C#N)cnc1Cl | 148 to 153
OCCSC1=NN(SCCO)CS1 | 80
Clc1ccc2c(c1)Nc1cc(Cl)ccc1OCO2 | 194 to 196
O=c1c(Cc2ccccc2)c2n(c(=O)n1Cc1ccccc1)CCCS2 | 110 to 112
O=C(NCc1ccccc1N1CCNCC1)c1cnc2c(-c3cccc(Cl)c3)cnn2c1 | 185 to 188
COC(=O)c1ccc(SC)c(OC(C)C)c1 | 41 to 43
CCOC(=O)C1(NC=O)Cc2ccccc2NC1=O (stereo not given) | 187 to 190
CCCCn1c(=O)c2cn(S(C)(=O)=O)nc2n(CCCC)c1=O | 103 to 104
O=C(NCCCl)NC(c1cccc(C(F)(F)F)c1)C(F)(F)F (stereo not given) | 124 to 128
CCC(C)(CC(=O)Nc1cccc(OCc2ccc3ccc(F)cc3n2)c1)C(=O)O (stereo not given) | 179 to 180

Structure (SMILES) | melting point [°C]
O=C1C2=C(C=C3OCCC13)CCCO2 (stereo not given) | 101
COc1ccccc1OC1CCN(C(=O)Cl)C1 (stereo not given) | 80 to 81
CN(C)CCCN1N=C2C(=Cc3ccccc3)CS(=O)(=O)CC2C1c1ccccc1 (stereo not given) | 127 to 129
COc1ccc(-c2ccc3c(F)c(OC)ccc3c2)cc1 | 150 to 155
Cc1ccc(C(=O)OCc2c3ccccc3cc3ccccc23)cc1 | 124
CC(C)(C)C(NC(=O)c1ccc(-c2ccco2)cc1)NC(=NC#N)Nc1cccnc1 (stereo not given) | 181 to 182
Cn1cc(CO)c(=O)c2ccc(C(F)(F)F)cc21 | 172 to 175
Clc1nccc(N[C@H]2CC[C@@H](c3ccccc3)CC2)c1Br | 105
CCC(CC)O[C@@H]1C=C(C(=O)OC)C[C@H](CC(O)CN=[N+]=[N-])[C@H]1NC(C)=O (stereo not given in full) | 92 to 93
COC1O[C@H](CC#N)[C@H](OCc2ccccc2)[C@H]1O (stereo not given in full) | 59 to 60
N#Cc1ccc(CN2C(=O)C3CCCC3N(C(=O)CN3C(=O)c4ccccc4C3=O)c3ccccc32)cc1 (stereo not given) | 222 to 224
CC(=O)CC(=O)NCC1C(NC(=O)CC(C)=O)C(C)CC1(C)C (stereo not given) | 94 to 114
CC#CCOc1ccc(S(=O)(=O)N(C)C(C(=O)NO)c2ccc(OCCCNC(=O)OCCCC)cc2)cc1 (stereo not given) | 50 to 55
O=C(NC1c2cc(NC(=O)N3CCCC3)ccc2CCC1O)c1ccc(Cl)c(Cl)c1 (stereo not given) | 206 to 208
Cc1c(CCCCCCCCCCCC(=O)O)cccc1C(=O)c1ccc(Cl)cc1 | 79
COC(=O)CCCCc1cc2nc(Cl)ccc2n1S(=O)(=O)c1cc(C)cc(C)c1 | 126
COc1ccc2[nH]cc(CCN3CCC(Oc4ccc(F)cc4)CC3)c2c1 | 132 to 134
COCCSC(F)(F)C(O)(Cn1cncn1)c1ccc(F)cc1F (stereo not given) | 80 to 81
COc1ccc([C@@H]2CCCC[C@@H]2N)cc1OC | 80 to 81.5
CCn1cc(C(=O)O)c(=O)c2cc(F)c(N3CCNC(Cn4cccc4)C3)cc21 (stereo not given) | 185 to 188

Now from value to molecule:

melting point [°C] | Structure (SMILES)
180 to 182 | COc1ccccc1C(=O)ON1C(=O)CCC1=O
221 to 222 | COc1ccc(-c2nc(Cl)c(Oc3ccccc3OC)c(NS(=O)(=O)c3ccc(C(C)(C)C)cc3)n2)cc1
49.5 to 50 | CC(NCc1ccccc1)N(Cc1ccccc1)CC(C)[N+](=O)[O-] (stereo not given)
33 to 35 | CC(C)COC(=O)ON1C(=O)CCC1=O
308 to 312 | Cc1nc2cc(C(=O)O)c(C(=O)O)cc2n1C
145 to 148 | N#Cc1c2ccccc2c(-c2ccc(O[C@H](Cc3ccccc3)C(=O)O)cc2)c2c1sc1ccccc12
210 to 213 | CCOC(=O)c1cn(-c2nc(NC(C)(C)C)c(F)cc2Cl)c2c(Cl)c(F)c(F)cc2c1=O
70 to 72 | CN(C)c1cccc(C(=O)COc2cccc(Cl)c2)c1
89 to 90 | COC(=O)c1cc(OCc2nc(-c3ccccc3)sc2C)no1
88 to 89 | O=C(Nc1ccc(OCCCN2CCCC2=O)c2ccccc12)c1cc(F)cc(N2CCCCC2)c1
306 to 308 | Oc1cc(-c2ccc(Cl)cc2)nc2ccnn12
128 to 130 | CC(C)C[C@H](O)[C@H](O)[C@H](Cc1ccccc1)NC(=O)OC(C)(C)C
242 | C#CCOc1cc(N2C(=O)c3ccccc3C2=O)c(F)cc1C#N
195 to 197 | CS(=O)(=O)c1ccc(-c2nc(C(F)(F)F)nc(Cl)c2-c2ccc(F)cc2)cc1
136 | CC(C(=O)c1ccc(Cl)cc1)N1CCC(O)(Cc2ccccc2)CC1 (stereo not given)
121 to 122 | O=C(c1cccs1)C(Cc1ccccc1F)n1cncn1 (stereo not given)
127 | COc1ccccc1CNC(=O)c1ccc2c(c1)N(C(C)CN1CCCC1)c1ccccc1S2 (racemic)
229 | Cc1cn(-c2nc(C3=Nc4ccc(-c5ccc(F)cc5)cc4NC(=O)C3)cs2)cn1

melting point [°C] | Structure (SMILES)
161 | c1ccc(Nc2ncnc3cnccc23)cc1
300 | c1ccc2c(c1)CC(Nc1ncnc3nc[nH]c13)C2
128 to 130 | Cc1ncsc1C(C)(O)c1ccccc1 (stereo not given)
223 to 225 | Oc1cccnc1C=NNc1ccc(F)cc1
67 to 68 | CCc1nccn1N=Cc1ccccc1
196 to 201 | O=C(OCN1C(=O)c2ccccc2C1=O)c1ccccc1N=Nc1ccc(O)c(O)n1
129 to 130 | COC(=O)CCC(C)C1CCC2C3CCC4CC(N)CCC4(C)C3CC(=O)C12C (stereo not given)
159 | CC(=O)OC1CSC(Sc2ccc(S(=O)(=O)c3ccccc3)cc2)C(OC(C)=O)C1OC(C)=O (stereo not given)
71.8 to 73 | C=C(c1ccc(Br)cc1)c1ccc(OCCCC)cc1
109 | CSCCC1OC2(CCCCC2)NC1=O (stereo not given)
> 250 | O=C(O)c1[nH]c2cc(Cl)cc(Cl)c2c1C=C1CON(c2ccccc2)C1=O
83 to 85 | O=C(N[C@@H](Cc1ccccc1)C(=O)O)c1cccc(NC(=O)C(CS)Cc2ccccc2)c1 (stereo not given in full)
117 to 119 | CCOC(=O)c1cn2c(C)csc2n1
126 to 128 | COc1ccc(C[C@@H](C(=O)[C@H](Cc2ccc(OC)c(OC)c2)N2C(=O)c3ccccc3C2=O)N2C(=O)c3ccccc3C2=O)cc1OC
231 to 233 | CCCc1nc2ccccc2n1CCC1CCN(c2ccccc2-c2nnn[nH]2)CC1
244 to 245 | O=c1c(CCO)c(O)c2cccnc2n1-c1cccc([N+](=O)[O-])c1
> 230 | Cc1cc(C(F)(F)F)ccc1NC(=O)c1c(C)cccc1NC(=O)C(C)C
212 to 213 | CCc1cnc(NC(=O)C2c3ccccc3Oc3ccccc32)o1
